Results published in patent US12208075B2, “Antimicrobial compositions containing free fatty acids” (priority 2009, dated 2025).

Tests used:
[1] = system: adhesion of Candida albicans to human Buccal Epithelial Cells; experiment: microbe, parasite or virus in culture; type: cell-based; conditions: for incremental increase in adhesion inhibitory effect achieved by de-lipidisation (in brackets): versus Table 4
[2] = system: Staphylococcus aureus RN 4220; experiment: Comparative microbicidal suspension test, free vs emulsified fatty acids; type: cell-based
fresh sheep blood [3] = experiment: Blood clotting time, visual tube comparison; conditions: between 0.5% and […] caprylic acid emulsified in 0.5% DLL
Description: Comparative measurement of accelerated clotting times is achieved using appropriate volumes of fresh blood mixed with a volume of test material, where the combined volumes totaled 5 ml in each case in a 15 ml graduated Greiner centrifuge tube (Greiner Bio-one, North Carolina, USA). Immediately after addition of fresh blood, the tubes are inverted twice to mix and allowed to stand without further agitation. Clot formation is visibly apparent when the tubes are tilted slightly, and once a clot formed its integrity was such that it would remain suspended when the tubes were inverted. In each test a 5 ml sample of fresh whole blood (undiluted) is used as a control.
Rate of blood clotting was determined using freshly aspirated sheep blood and apparatus and procedures described in the Methods section. An activated blood clotting meter was used to measure anti-clotting effects and a visual tube comparison to evaluate reduced clotting times.
Blood clotting and/or anti-clotting effects were assessed using a 20% ratio of test item to fresh blood: in practice 4.0 ml of fresh sheep blood was added to tubes containing 1.0 ml of test item, inverted twice to mix and then either left standing for visual assessment of reduced clotting time or a single drop was applied to the cuvette of an activated blood clotting apparatus for assessment of anti-clotting effect (extended time to clot formation).

Staphylococcus aureus [4] = experiment: Ex-vivo wound model (beef brisket); conditions: FIG. 10, 100 minutes exposure, 7 logs inoculum
[5] = system: Staphylococcus aureus, Streptococcus epidermidis, Escherichia coli and Candida albicans; experiment: Microbicidal effect of catheter locking solutions in whole blood, test inoculums overall; type: cell-based; conditions: 20%, one hour in whole blood
fresh sheep blood [6] = experiment: Activated blood clotting time (Hemochron meter)
[7] = system: Streptococcus epidermidis; experiment: Microbicidal effect of catheter locking solutions in whole blood; type: cell-based; conditions: 20% by volume, 60 min
Staphylococcus aureus [8] = experiment: as above; type: cell-based; conditions: 20% by volume, 60 min
Candida albicans = experiment: as above; type: cell-based; conditions: 20% by volume, 60 min
Escherichia coli = experiment: as above; type: cell-based; conditions: 20% by volume, 60 min
[9] = Table 21, 0.5% W/V fatty acid, free or emulsified in 0.4% W/V DLL
[10] = Table 22, low dose, listed as Free caprylic acid 0.05%
[11] = Table 22, low dose, listed as Free caprylic acid 0.1%
[12] = 2.5 mg/ml, Table 5, de-lipidised
[13] = 5.0 mg/ml, Table 5, de-lipidised
[14] = 10 mg/ml, Table 5, de-lipidised
[15] = 2.5 mg/ml, Table 4, lipids as purchased
[16] = 5.0 mg/ml, Table 4, lipids as purchased
[17] = 10 mg/ml, Table 4, lipids as purchased

| Molecule | % Adhesion ([1]; Table 21) [%] | % inhibition ([1]; Table 21) [%] | Test Count/100 BEC [1, 9] | viable count (log number) ([2]; 0 Seconds at 37° C.) [log] | viable count (log number) ([2]; 60 Seconds at 37° C.) [log] | viable count (log number) ([2]; 120 Seconds at 37° C.) [log] | viable count (log number) ([2]; 180 Seconds at 37° C.) [log] | viable count (log number) ([2]; 240 Seconds at 37° C.) [log] | viable count (log number) ([2]; 300 Seconds at 37° C.) [log] | viable count (log number) ([2]; 360 Seconds at 37° C.) [log] | further results |
| --- | --- | --- | --- | --- | --- | --- | --- | --- | --- | --- | --- |
| CCCCCCCCCC(=O)O [Free capric acid, capric acid] | 90 | 10 | 386 | 6.94 | 6.32 | 6.48 | 6.73 | 6.36 | 5.97 | 6.11 |  |
| CCCCCCCCCCCC(=O)O [Free lauric acid, lauric acid] | 95 | 5 | 450 |  |  |  |  |  |  |  |  |
| CCCCCCCC(=O)O [Free caprylic acid, caprylic acid] | 93 | 7 | 400 | 6.94 | 6.79 | 6.83 | 6.21 | 6.33 | 5.89 | 6.17 | % Adhesion [1, 10]: 94%; % inhibition [1, 10]: 6%; Test Count/100 BEC [1, 10]: 459; % Adhesion [1, 11]: 95%; % inhibition [1, 11]: 5%; Test Count/100 BEC [1, 11]: 466; factor of amplification of adhesion inhibitory effect in emulsified form ([1]; emulsified versus free): 14; clotting time (fresh sheep blood [3]): approximately 40 seconds |
| C=CCCCCCCCCC(=O)O [Free undecylenic acid, undecylenic acid] | 86 | 14 | 448 | 7.87 | 7.19 | 6.99 | 6.57 | 6.83 | 6.67 | 6.31 |  |
| CCCCCCCCCCCCCC(=O)O [Free myristic acid, myristic acid] | 92 | 8 | 436 | 7.38 | 7.27 | 7.84 | 6.93 | 7.11 | 6.26 | 6.84 |  |
| [H]/N=C(\N/C(=N/[H])NCCCCCCNC(=N)NC(=N)Nc1ccc(Cl)cc1)Nc1ccc(Cl)cc1 [chlorhexidine, chlorhexidine gluconate] |  |  |  |  |  |  |  |  |  |  | logs remaining (Staphylococcus aureus [4]): 1 logs |
| Heparin |  |  |  |  |  |  |  |  |  |  | microbicidal effect in words [5]: no microbial inhibition; Activated Blood Clotting Time (fresh sheep blood [6]; 5% incorporation in whole blood): 284 s; Activated Blood Clotting Time (fresh sheep blood [6]; 10% incorporation in whole blood): 423 s; Activated Blood Clotting Time (fresh sheep blood [6]; 15% incorporation in whole blood): 601 s; Activated Blood Clotting Time (fresh sheep blood [6]; 20% incorporation in whole blood): 1023 s; viable count in whole blood (log number) [7]: 8.22 log; viable count in whole blood (log number) (Staphylococcus aureus [8]): 8.39 log; viable count in whole blood (log number) (Candida albicans): 6.94 log; viable count in whole blood (log number) (Escherichia coli): 7.92 log |
| DL BSA: Bovine Serum Albumin treated by the de-lipidisation procedure [reference compound] |  |  |  |  |  |  |  |  |  |  | % inhibition at 2.5 mg/ml ([1]; 2.5 mg/ml, Table 5): 16%; Candida albicans per 100 Buccal Epithelial Cell [1, 12]: 431; incremental increase in adhesion inhibitory effect achieved by de-lipidisation (in brackets) ([1]; 2.5 mg/ml): −3%; Candida albicans per 100 Buccal Epithelial Cell [1, 13]: 393; Candida albicans per 100 Buccal Epithelial Cell [1, 14]: 329 |
| CC(C)=CCC[C@@H](C)[C@H]1CC[C@@]2(C)C3=C(CC[C@]12C)[C@@]1(C)CC[C@H](O)C(C)(C)[C@@H]1CC3 [DL L] |  |  |  |  |  |  |  |  |  |  | % inhibition at 2.5 mg/ml ([1]; 2.5 mg/ml, Table 5): 54%; Candida albicans per 100 Buccal Epithelial Cell [1, 12]: 247; incremental increase in adhesion inhibitory effect achieved by de-lipidisation (in brackets) ([1]; 2.5 mg/ml): +13%; Candida albicans per 100 Buccal Epithelial Cell [1, 13]: 91; Candida albicans per 100 Buccal Epithelial Cell [1, 14]: 49 |
| CC(C)=CCC[C@@H](C)[C@H]1CC[C@@]2(C)C3=C(CC[C@]12C)[C@@]1(C)CC[C@H](O)C(C)(C)[C@@H]1CC3 [L, Lanosterol] |  |  |  |  |  |  |  |  |  |  | Candida albicans per 100 Buccal Epithelial Cell [1, 15]: 306; Candida albicans per 100 Buccal Epithelial Cell [1, 16]: 236; Candida albicans per 100 Buccal Epithelial Cell [1, 17]: 133; inhibition at 2500 µg/mL ([1]; Candida albicans, Epithelial cell, read-out: % inhibition at 2.5 mg/ml): 41% |
| CCCCCC(=O)O [Free caproic acid, caproic acid] | 89 | 11 | 380 | 7.87 | 7.17 | 6.82 | 7.57 | 6.93 | 6.47 | 6.73 |  |
| Bovine Serum Albumin [BSA, reference compound] |  |  |  |  |  |  |  |  |  |  | % inhibition at 2.5 mg/ml ([1]; 2.5 mg/ml, Table 4): 19%; Candida albicans per 100 Buccal Epithelial Cell [1, 15]: 400; Candida albicans per 100 Buccal Epithelial Cell ([1]; 2.5 mg/ml, Table 6, water or 100 mM salt pH 4.5, with/without BSA, listed as BSA Sod′ Lactate): 408; Candida albicans per 100 Buccal Epithelial Cell ([1]; 2.5 mg/ml, Table 6, water or 100 mM salt pH 4.5, with/without BSA, listed as BSA Sod′ citrate): 393; Candida albicans per 100 Buccal Epithelial Cell ([1]; 2.5 mg/ml, Table 6, water or 100 mM salt pH 4.5, with/without BSA, listed as BSA: water): 438; Candida albicans per 100 Buccal Epithelial Cell [1, 16]: 379; % inhibition at 5 mg/ml ([1]; Table 6, listed as BSA Sod′ Lactate): 21%; Candida albicans per 100 Buccal Epithelial Cell ([1]; 5.0 mg/ml, Table 6, listed as BSA Sod′ Lactate): 372; % inhibition at 5 mg/ml ([1]; Table 6, listed as BSA Sod′ citrate): 22%; Candida albicans per 100 Buccal Epithelial Cell ([1]; 5.0 mg/ml, Table 6, listed as BSA Sod′ citrate): 369; % inhibition at 5 mg/ml ([1]; Table 6, listed as BSA: water): 12%; Candida albicans per 100 Buccal Epithelial Cell ([1]; 5.0 mg/ml, Table 6, listed as BSA: water): 400; Candida albicans per 100 Buccal Epithelial Cell [1, 17]: 303; Candida albicans per 100 Buccal Epithelial Cell ([1]; 10 mg/ml, Table 6): 362; % Adhesion ([1]; Table 16): 83%; % inhibition ([1]; Table 16): 17%; Count/100 BEC ([1]; Table 16, 100 mM sodium citrate pH 4.5, 0.5% Methocel, lipids 0.1%): 425 |
| CCCCCCCCC(=O)O [Free pelargonic acid, pelargonic acid] | 84 | 16 | 360 | 6.94 | 6.55 | 6.31 | 5.96 | 5.67 | 5.83 | 5.27 |  |
